Measured values: a compilation of properties of binary mixtures (doi:10.1016/j.molliq.2019.01.093)

Assay: xn = mol fraction of the nth substance listed
Conditions: 298.1 K, 100 kPa

## CC[n+]1ccn(C)c1.F[B-](F)(F)F + CS(C)=O
x1 = 0.01
  electrical conductivity: 0.25 S/m
x1 = 0.017
  electrical conductivity: 0.69 S/m
x1 = 0.021
  electrical conductivity: 0.67 S/m
x1 = 0.032
  electrical conductivity: 1.04 S/m
x1 = 0.051
  electrical conductivity: 1.24 S/m
x1 = 0.066
  electrical conductivity: 1.53 S/m
x1 = 0.097
  electrical conductivity: 1.68 S/m
x1 = 0.15
  electrical conductivity: 1.84 S/m
x1 = 0.286
  electrical conductivity: 1.67 S/m
x1 = 0.483
  electrical conductivity: 1.48 S/m
x1 = 0.782
  electrical conductivity: 1.13 S/m
x1 = 1
  electrical conductivity: 0.91 S/m

## CCOP(=O)([O-])OCC.CC[n+]1ccn(C)c1 + CS(C)=O
x1 = 0.006
  electrical conductivity: 0.1 S/m
x1 = 0.013
  electrical conductivity: 0.19 S/m
x1 = 0.04
  electrical conductivity: 0.48 S/m
x1 = 0.059
  electrical conductivity: 0.57 S/m
x1 = 0.074
  electrical conductivity: 0.62 S/m
x1 = 0.119
  electrical conductivity: 0.68 S/m
x1 = 0.169
  electrical conductivity: 0.64 S/m
x1 = 0.233
  electrical conductivity: 0.57 S/m
x1 = 0.32
  electrical conductivity: 0.5 S/m
x1 = 0.544
  electrical conductivity: 0.28 S/m

## CC(=O)[O-].CC[n+]1ccn(C)c1 + CS(C)=O
x1 = 0.01
  electrical conductivity: 0.16 S/m
x1 = 0.029
  electrical conductivity: 0.48 S/m
x1 = 0.044
  electrical conductivity: 0.63 S/m
x1 = 0.055
  electrical conductivity: 0.73 S/m
x1 = 0.082
  electrical conductivity: 0.83 S/m
x1 = 0.165
  electrical conductivity: 1.04 S/m
x1 = 0.237
  electrical conductivity: 1.07 S/m
x1 = 0.313
  electrical conductivity: 1.01 S/m
x1 = 0.415
  electrical conductivity: 0.93 S/m
x1 = 0.513
  electrical conductivity: 0.81 S/m
x1 = 0.813
  electrical conductivity: 0.5 S/m
x1 = 1
  electrical conductivity: 0.38 S/m
